Patent US6737383B1, “Herbicidal oxadiazolidines” (priority 1999, dated 2004)

Experiments:
bedstraw = assay: Test B pre/postemergence bedstraw; type: in vivo, Galium aparine; conditions: Postemergence; for Bedstraw plant response rating: scale of 0 to 10, 0 is no effect, 10 is complete control
How it was run: (§1)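 Response is a visual 0-to-10 score relative to untreated plants, where 0 means no effect and 10 means complete control, taken twelve to sixteen days after application. Treatments went onto soil at planting and onto foliage of 1- to 4-leaf plants, using a surfactant-containing non-phytotoxic solvent.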

blackgrass = assay: Test B pre/postemergence blackgrass; type: in vivo, Alopecurus myosuroides
How it was run: as §1

surinam grass = assay: Test B pre/postemergence surinam grass; type: in vivo, Brachiaria decumbens
How it was run: as §1

cocklebur = assay: Test B pre/postemergence cocklebur; type: in vivo, Xanthium strumarium
How it was run: as §1

corn = assay: Test B pre/postemergence corn; type: in vivo, Zea mays
How it was run: as §1

crabgrass = assay: Test B pre/postemergence crabgrass; type: in vivo, Digitaria sanguinalis
How it was run: as §1

giant foxtail = assay: Test B pre/postemergence giant foxtail; type: in vivo, Setaria faberii
How it was run: as §1

morningglory = assay: Test B pre/postemergence morningglory; type: in vivo, Ipomoea hederacea
How it was run: as §1

pigweed = assay: Test B pre/postemergence pigweed; type: in vivo, Amaranthus retroflexus
How it was run: as §1

rape = assay: Test B pre/postemergence rape; type: in vivo, Brassica napus
How it was run: as §1

soybean = assay: Test B pre/postemergence soybean; type: in vivo, Glycine max
How it was run: as §1

sugar beet = assay: Test B pre/postemergence sugar beet; type: in vivo, Beta vulgaris
How it was run: as §1

velvetleaf = assay: Test B pre/postemergence velvetleaf; type: in vivo, Abutilon theophrasti
How it was run: as §1

wheat = assay: Test B pre/postemergence wheat; type: in vivo, Triticum aestivum
How it was run: as §1

wild oat = assay: Test B pre/postemergence wild oat; type: in vivo, Avena fatua
How it was run: as §1

purple nutsedge = assay: Test B pre/postemergence purple nutsedge; type: in vivo, Cyperus rotundus
How it was run: as §1

rice = assay: Test B flood test rice; type: in vivo, Oryza sativa
How it was run: (§2)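 Read-out is a visual response score from 0 (no effect) to 10 (complete control), assigned by comparison with untreated controls. Treatment was applied at the 2-leaf stage, and plants stayed in the greenhouse for twelve to sixteen days before scoring.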

smallflower flatsedge = assay: Test B flood test smallflower flatsedge; type: in vivo, Cyperus difformis
How it was run: as §2

duck salad = assay: Test B flood test duck salad; type: in vivo, Heteranthera limosa
How it was run: as §2

bamyardgrass = assay: Test B flood test barnyardgrass; type: in vivo, Echinochloa crus-galli
How it was run: as §2

[1] = Postemergence, Rate 62 g/ha, scale of 0 to 10, 0 is no effect, 10 is complete control
[2] = Postemergence, Rate 125 g/ha, scale of 0 to 10 where 0 is no effect and 10 is complete control
[3] = Postemergence, Rate 250 g/ha, scale of 0 to 10, 0 is no effect, 10 is complete control
[4] = Postemergence, Rate 500 g/ha, scale of 0 to 10 where 0 is no effect and 10 is complete control
[5] = Preemergence, Rate 62 g/ha, scale 0 to 10 (0 no effect, 10 complete control)
[6] = Preemergence, Rate 125 g/ha, scale of 0 to 10 where 0 is no effect and 10 is complete control
[7] = Preemergence, Rate 500 g/ha, scale of 0 to 10 where 0 is no effect and 10 is complete control
[8] = Rate 62 g/ha, flood test species, Pre-emergence, visual evaluation after twelve to sixteen days
[9] = Rate 125 g/ha, under heading Pre-emergence, flood test species, visual evaluation after twelve to sixteen days
[10] = Rate 250 g/ha, Pre-emergence (flood test species), scale 0 to 10, 0 is no effect, 10 is complete control
[11] = Rate 500 g/ha, Pre-emergence section of Table B, 0 to 10 scale (0 no effect, 10 complete control)

CC(C)N(C(=O)n1oc(=O)n(CC(=O)N(C)C)c1=O)c1ccc(F)cc1 [Compound 586]
10: Blackgrass plant response rating (blackgrass; [7]) | B. signalgrass plant response rating (surinam grass; [7]) | Crabgrass plant response rating (crabgrass; [7]) | Giant foxtail plant response rating (giant foxtail; [6]) | Giant foxtail plant response rating (giant foxtail; [7]) | Plant response rating, Morningglory (morningglory; [2]) | Morningglory plant response rating (morningglory; [3]) | Redroot pigweed plant response rating (pigweed; [7]) | Wild oats plant response rating (wild oat; [7])
2: Corn plant response rating (corn; [3]) | Crabgrass plant response rating (crabgrass; [1]) | Giant foxtail plant response rating (giant foxtail; [1]) | Plant response rating, Giant foxtail (giant foxtail; [2]) | Plant response rating, Redroot pigweed (pigweed; [4]) | Nutsedge plant response rating (purple nutsedge; [7])
8: Plant response rating, Blackgrass (blackgrass; [4]) | B. signalgrass plant response rating (0 to 10 scale, 0 is no effect, 10 is complete control) (surinam grass; Preemergence, Rate 250 g/ha) | Crabgrass plant response rating (crabgrass; [3]) | Giant foxtail plant response rating (giant foxtail; [3]) | Redroot pigweed plant response rating (pigweed; [6]) | Sugarbeets plant response rating (sugar beet; [7]) | Wheat plant response rating (wheat; [7])
6: Morningglory plant response rating (morningglory; [1])
3: Blackgrass plant response rating (blackgrass; [3]) | Blackgrass plant response rating (blackgrass; [5]) | B. signalgrass plant response rating (surinam grass; [3]) | Plant response rating, Corn (corn; [4]) | Plant response rating, Crabgrass (crabgrass; [2]) | Plant response rating, Soybean (soybean; [2]) | Soybean plant response rating (soybean; [3]) | Plant response rating, Soybean (soybean; [4]) | Wild oats plant response rating (wild oat; [6])
7: Blackgrass plant response rating (blackgrass; [6]) | Plant response rating, B. signalgrass (surinam grass; [4]) | Velvetleaf plant response rating (velvetleaf; [7])
5: B. signalgrass plant response rating (surinam grass; [6])
4: Morningglory plant response rating (morningglory; [7]) | Rape plant response rating (rape; [7])
1: Plant response rating, Blackgrass (blackgrass; [2]) | Plant response rating, Velvetleaf (velvetleaf; [4])
0: Bedstraw plant response rating (bedstraw; Rate 62 g/ha) | Plant response rating, Bedstraw (bedstraw; Rate 125 g/ha, scale of 0 to 10 where 0 is no effect and 10 is complete control) | Bedstraw plant response rating (bedstraw; Rate 250 g/ha) | Blackgrass plant response rating (blackgrass; [1]) | B. signalgrass plant response rating (surinam grass; [1]) | Plant response rating, B. signalgrass (surinam grass; [2]) | B. signalgrass plant response rating (surinam grass; [5]) | Cocklebur plant response rating (cocklebur; [1]) | Plant response rating, Cocklebur (cocklebur; [2]) | Cocklebur plant response rating (cocklebur; [3]) | Plant response rating, Cocklebur (cocklebur; [4]) | Cocklebur plant response rating (cocklebur; [5]) | Cocklebur plant response rating (cocklebur; [6]) | Cocklebur plant response rating (0 to 10 scale) (cocklebur; Preemergence, Rate 250 g/ha) | Cocklebur plant response rating (cocklebur; [7]) | Corn plant response rating (corn; [1]) | Plant response rating, Corn (corn; [2]) | Corn plant response rating (corn; [5]) | Corn plant response rating (corn; [6]) | Corn plant response rating (0 to 10 scale) (corn; Preemergence, Rate 250 g/ha) | Corn plant response rating (corn; [7]) | Morningglory plant response rating (morningglory; [5]) | Morningglory plant response rating (morningglory; [6]) | Plant response rating, Redroot pigweed (pigweed; [2]) | Redroot pigweed plant response rating (pigweed; [3]) | Redroot pigweed plant response rating (pigweed; [5]) | Rape plant response rating (rape; [1]) | Plant response rating, Rape (rape; [2]) | Rape plant response rating (rape; [3]) | Plant response rating, Rape (rape; [4]) | Rape plant response rating (rape; [5]) | Rape plant response rating (rape; [6]) | Soybean plant response rating (soybean; [5]) | Soybean plant response rating (soybean; [6]) | Soybean plant response rating (soybean; [7]) | Plant response rating, Sugarbeets (sugar beet; [2]) | Sugarbeets plant response rating (sugar beet; [3]) | Plant response rating, Sugarbeets (sugar beet; [4]) | Sugarbeets plant response rating (sugar beet; [5]) | Sugarbeets plant response rating (sugar beet; [6]) | Plant response rating, Velvetleaf (velvetleaf; [2]) | Velvetleaf plant response rating (velvetleaf; [3]) | Velvetleaf plant response rating (velvetleaf; [5]) | Velvetleaf plant response rating (velvetleaf; [6]) | Plant response rating, Wheat (wheat; [2]) | Wheat plant response rating (wheat; [3]) | Plant response rating, Wheat (wheat; [4]) | Wheat plant response rating (wheat; [5]) | Wheat plant response rating (wheat; [6]) | Plant response rating, Wild oats (wild oat; [2]) | Wild oats plant response rating (wild oat; [3]) | Plant response rating, Wild oats (wild oat; [4]) | Wild oats plant response rating (wild oat; [5]) | Nutsedge plant response rating (purple nutsedge; [1]) | Plant response rating, Nutsedge (purple nutsedge; [2]) | Nutsedge plant response rating (purple nutsedge; [3]) | Plant response rating, Nutsedge (purple nutsedge; [4]) | Nutsedge plant response rating (purple nutsedge; [5]) | Nutsedge plant response rating (purple nutsedge; [6]) | Plant response rating, Rice (0 to 10 scale, 0 is no effect, 10 is complete control) (rice; [8]) | Rice plant response rating (0 to 10 scale, 0 is no effect, 10 is complete control) (rice; [9]) | Rice plant response rating (rice; [10]) | Rice plant response rating (rice; [11]) | Plant response rating, S. Flatsedge (0 to 10 scale, 0 is no effect, 10 is complete control) (smallflower flatsedge; [8]) | S. Flatsedge plant response rating (0 to 10 scale, 0 is no effect, 10 is complete control) (smallflower flatsedge; [9]) | S. Flatsedge plant response rating (smallflower flatsedge; [10]) | S. Flatsedge plant response rating (smallflower flatsedge; [11]) | Plant response rating, Ducksalad (0 to 10 scale, 0 is no effect, 10 is complete control) (duck salad; [8]) | Ducksalad plant response rating (0 to 10 scale, 0 is no effect, 10 is complete control) (duck salad; [9]) | Ducksalad plant response rating (duck salad; [10]) | Ducksalad plant response rating (duck salad; [11]) | Plant response rating, Barnyardgrass (0 to 10 scale, 0 is no effect, 10 is complete control) (bamyardgrass; [8]) | Barnyardgrass plant response rating (0 to 10 scale, 0 is no effect, 10 is complete control) (bamyardgrass; [9]) | Barnyardgrass plant response rating (bamyardgrass; [10]) | Barnyardgrass plant response rating (bamyardgrass; [11])
9: Blackgrass plant response rating (0 to 10 scale) (blackgrass; Preemergence, Rate 250 g/ha) | Plant response rating, Crabgrass (crabgrass; [4]) | Crabgrass plant response rating (crabgrass; [5]) | Crabgrass plant response rating (crabgrass; [6]) | Plant response rating, Giant foxtail (giant foxtail; [4]) | Giant foxtail plant response rating (giant foxtail; [5])
